Columns and labels:
Experiment in all cases: combination Emax (second highest fraction inhibited in the dose matrix, 72 h); higher = more inhibition; extreme values may be limits of the assay
[1] = tested on: SKN (Other Solid Carcinomas)
In short: (§1)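 After 24 hours at 37°C and 5% CO2 in 1536-well plates, cells in DMEM/F12 or RPMI plus 10% FBS received two-drug dose matrices for 72 hours. Viability came from CellTiter-Glo 2.0 luminescence and was scaled as inhibition, anchored at 0 by vehicle wells and at 1 by blank wells. Combination Emax is taken as the second-highest inhibition in the matrix, and Bliss excess as the observed combination effect less EA + EB − EA·EB, with EA and EB the single-agent effects.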

[2] = tested on: COLO-668 (Small Cell Lung Carcinoma)
In short: as §1

[3] = tested on: A4-Fuk (B-Lymphoblastic Leukemia)
In short: as §1

[4] = tested on: SW872 (Other Solid Carcinomas)
In short: as §1

[5] = tested on: OACM5-1 (Esophageal Adenocarcinoma)
In short: as §1

[6] = tested on: CADO-ES1 (Ewing's Sarcoma)
In short: as §1

[7] = tested on: DU-145 (Prostate Carcinoma)
In short: as §1

Hey (Ovarian Carcinoma) = tested on: Hey (Ovarian Carcinoma)
In short: as §1

SK-N-AS (Neuroblastoma) = tested on: SK-N-AS (Neuroblastoma)
In short: as §1

[8] = tested on: MOG-G-UVW (Low Grade Glioma)
In short: as §1

[9] = tested on: NCI-H1092 (Small Cell Lung Carcinoma)
In short: as §1

[10] = tested on: NCI-H522 (Lung Adenocarcinoma)
In short: as §1

[11] = tested on: LC-1-sq (Squamous Cell Lung Carcinoma)
In short: as §1

[12] = tested on: MDA-MB-453 (Breast Carcinoma)
In short: as §1

[13] = tested on: NCI-H1993 (Lung Adenocarcinoma)
In short: as §1

[14] = tested on: HCC2998 (Colorectal Carcinoma)
In short: as §1

[15] = tested on: HCC1937 (Breast Carcinoma)
In short: as §1

[16] = tested on: ALL-SIL (T-Lymphoblastic Leukemia)
In short: as §1

[17] = tested on: SK-LU-1 (Lung Adenocarcinoma)
In short: as §1

[18] = tested on: NCI-H2122 (Lung Adenocarcinoma)
In short: as §1

SMILES	combination Emax [1]	combination Emax [2]	combination Emax [3]	combination Emax [4]	combination Emax [5]	combination Emax [6]	combination Emax [7]	combination Emax (Hey (Ovarian Carcinoma))	combination Emax (SK-N-AS (Neuroblastoma))	combination Emax [8]	combination Emax [9]	combination Emax [10]	combination Emax [11]	combination Emax [12]	combination Emax [13]	combination Emax [14]	combination Emax [15]	combination Emax [16]	combination Emax [17]	combination Emax [18]
NC1(C(=O)N[C@@H](CCO)c2ccc(Cl)cc2)CCN(c2ncnc3[nH]ccc23)CC1 [Capivasertib] + CC(=O)c1c(C)c2cnc(Nc3ccc(N4CCNCC4)cn3)nc2n(C2CCCC2)c1=O [Palbociclib] (first compound max 10 µM, 7x7, partner max 10 µM)	0.639	0.437	0.722	0.413	0.721	0.274	0.166	0.578	0.351	0.727	0.177	0.172	0.206	0.589	0.647	0.591	0.477	0.46	0.4	0.793
CC(=O)c1c(C)c2cnc(Nc3ccc(N4CCNCC4)cn3)nc2n(C2CCCC2)c1=O [Palbociclib] + Cc1c2c(nn1C)CSCc1cc(n(C)n1)CSc1cc(c3ccccc3c1)OCCCc1c(C(=O)O)n(C)c3c-2c(Cl)ccc13 [AZD5991] (first compound max 10 µM, 7x7, partner max 1 µM)	0.385	0.304	1	0.228	0.932	0.46	0.107	0.431	0.461	0.526	0.608	0.57	0.241	0.282	0.403	0.905	0.242	0.446	0.297	0.773
COc1nnc2ccc(N3CCC(c4ccc(OCCN5CCN(C)C(=O)[C@H]5C)cc4)CC3)nn12 [AZD5153] + Cc1c2c(nn1C)CSCc1cc(n(C)n1)CSc1cc(c3ccccc3c1)OCCCc1c(C(=O)O)n(C)c3c-2c(Cl)ccc13 [AZD5991] (first compound max 1 µM, 7x7, partner max 1 µM)	0.568	0.564	1	0.697	0.952	0.659	0.242	0.598	0.739	0.763	0.865	0.942	0.771	0.953	0.552	1	0.507	0.984	0.388	0.913
CC(=O)c1c(C)c2cnc(Nc3ccc(N4CCNCC4)cn3)nc2n(C2CCCC2)c1=O [Palbociclib] + CC1(C)CCC(CN2CCN(c3ccc(C(=O)NS(=O)(=O)c4ccc(NCC5CCOCC5)c([N+](=O)[O-])c4)c(Oc4cnc5[nH]ccc5c4)c3)CC2)=C(c2ccc(Cl)cc2)C1 [Venetoclax] (first compound max 10 µM, 7x7, partner max 1 µM)	0.342	0.114	0.552	0.0843	0.479	0.678	0.0454	0.355	0.125	0.497	0.222	0.127	0.166	0.275	0.403	0.416	0.0808	0.76	0.279	0.688
COc1nnc2ccc(N3CCC(c4ccc(OCCN5CCN(C)C(=O)[C@H]5C)cc4)CC3)nn12 [AZD5153] + Cn1cnc2c(F)c(Nc3ccc(Br)cc3Cl)c(C(=O)NOCCO)cc21 [Selumetinib] (first compound max 1 µM, 7x7, partner max 10 µM)	0.65	0.899	0.934	0.784	0.663	0.444	0.28	0.726	0.663	0.658	0.192	0.469	0.677	0.614	0.915	0.95	0.396	0.778	0.46	1
Cn1cnc2c(F)c(Nc3ccc(Br)cc3Cl)c(C(=O)NOCCO)cc21 [Selumetinib] + C[C@@H]1COCCN1C2=NC(=NC(=C2)C3(CC3)[S@](=N)(=O)C)C4=C5C=CNC5=NC=C4 [AZD6738] (first compound max 10 µM, 7x7, partner max 10 µM)	0.423	0.735	0.836	0.276	0.612	0.822	0.347	0.748	0.817	0.691	0.111	0.0701	0.684	0.684	0.795	0.899	0.421	0.934	0.376	0.972
C=CCn1c(=O)c2cnc(Nc3ccc(N4CCN(C)CC4)cc3)nc2n1-c1cccc(C(C)(C)O)n1 [AZD1775] + C[C@@H]1COCCN1C2=NC(=NC(=C2)C3(CC3)[S@](=N)(=O)C)C4=C5C=CNC5=NC=C4 [AZD6738] (first compound max 1 µM, partner max 10 µM)	0.506	0.893	0.875	0.83	0.778	0.901	0.604	0.809		0.922	0.397	0.487	0.938	0.891	0.689	0.938	0.68	0.992	0.488	0.961
COc1nnc2ccc(N3CCC(c4ccc(OCCN5CCN(C)C(=O)[C@H]5C)cc4)CC3)nn12 [AZD5153] + C[C@@H]1COCCN1C2=NC(=NC(=C2)C3(CC3)[S@](=N)(=O)C)C4=C5C=CNC5=NC=C4 [AZD6738] (first compound max 1 µM, 7x7, partner max 10 µM)	0.71	0.917	0.882	0.634	0.886	0.88	0.447	0.796	0.716	0.769	0.523	0.565	0.783	0.837	0.738	0.926	0.434	1	0.516	0.981
Cc1c2c(nn1C)CSCc1cc(n(C)n1)CSc1cc(c3ccccc3c1)OCCCc1c(C(=O)O)n(C)c3c-2c(Cl)ccc13 [AZD5991] + C=CCn1c(=O)c2cnc(Nc3ccc(N4CCN(C)CC4)cc3)nc2n1-c1cccc(C(C)(C)O)n1 [AZD1775] (first compound max 1 µM, partner max 1 µM)	0.436	0.464	1	0.374	0.928	0.925	0.373	0.59	0.964	0.761	0.696	0.516	0.851	0.4	0.629	0.962	0.617	1	0.575	0.979
Cc1c2c(nn1C)CSCc1cc(n(C)n1)CSc1cc(c3ccccc3c1)OCCCc1c(C(=O)O)n(C)c3c-2c(Cl)ccc13 [AZD5991] + C[C@@H]1COCCN1C2=NC(=NC(=C2)C3(CC3)[S@](=N)(=O)C)C4=C5C=CNC5=NC=C4 [AZD6738] (first compound max 1 µM, 7x7, partner max 10 µM)	0.42	0.63	1	0.547	0.928	0.989	0.621	0.806	0.966	0.756	0.887	0.417	0.845	0.886	0.517	0.994	0.557	1	0.521	0.957
Cc1c2c(nn1C)CSCc1cc(n(C)n1)CSc1cc(c3ccccc3c1)OCCCc1c(C(=O)O)n(C)c3c-2c(Cl)ccc13 [AZD5991] + C[C@@H](Nc1cc(F)cc(F)c1)c1cc(C(=O)N(C)C)cc2c(=O)cc(N3CCOCC3)oc12 [AZD8186] (first compound max 1 µM, 7x7, partner max 3 µM)	0.532	0.205	1	0.321	0.94	0.918	0.179	0.258	0.643	0.512	0.569	0.452	0.24	0.355	0.455	0.918	0.511	0.968	0.384	0.697
CN(C)CCCOc1ccc(-c2ccc3ncc4c(c3c2)n(C2CCOCC2)c(=O)n4C)cn1 [AZD0156] + CCN(CCO)CCCOc1ccc2c(Nc3cc(CC(=O)Nc4cccc(F)c4)[nH]n3)ncnc2c1 [AZD2811] (first compound max 1 µM, 7x7, partner max 1 µM)	0.042	0.0922	0.551	0.0742	0.232	0.323	0.134	0.229	0.183	0.615	0.181	0.0622	0.257	0.144	0.288	0.183	0.159	0.976	0.143	0.358
C=CCn1c(=O)c2cnc(Nc3ccc(N4CCN(C)CC4)cc3)nc2n1-c1cccc(C(C)(C)O)n1 [AZD1775] + C1CN(CCC1(C(=O)N[C@@H](CCO)C2=CC=C(C=C2)Cl)N)C3=NC=NC4=C3C=CN4 [Capivasertib] (first compound max 3 µM, partner max 3 µM)	0.576	0.545	0.859		0.74	0.621	0.449	0.726	0.766	0.891	0.533	0.612	0.761	0.859	0.701	0.831	0.873	0.936	0.634	0.931

Reference: the supplement of paper PMC11061612
